This passage reports cumulative drug release results from US12220550B2, “Transdermal delivery device, methods of using and making the same” (BUDDHIST TZU CHI MEDICAL FOUNDATION, priority 2021, dated 2025).

The nature of the data set: In vitro drug release from drug-loaded MNs. In kind it is physicochemical. The settings on record: from IPN hydrogel MNs, PBS pH 7.4, 37° C., 100 rpm, first 24 hours.

Protocol: The drug-loaded MNs were soaked in 10 mL of PBS solution (pH 7.4) and put in a shaking incubator at 37° C. and 100 rpm to simulate the real drug release environment. About 2.5 mL of the release medium was withdrawn and replenished with an equivalent volume of PBS every half hour for the first 4 hours. Similarly, the released medium was collected at the 5th, 6th, 8th, 12th, and 24th hour followed by every 24 h for 7 days. Then, the cumulative drug released was determined by measuring the UV-Vis absorbance of DOX and LPS at 485 nm and 256 nm, respectively, and then calculated using the standard calibration curve of the free drugs, as shown in FIGS. 14A and B.
Drug release behavior of IPN hydrogel was examined. First, DOX and/or LPS were loaded into the hydrogel by simple mixing with IPN hydrogel pre-gel solution (0.5 mg DOX/MNs and 0.2 mg LPS/MNs) followed by casting MNs and sequential photo-ionic crosslinking to obtained drug loaded solid MNs arrays (DOX loaded MN, LPS loaded MN and LPS/DOX loaded MN). Then, drug loaded MNs were immersed in 10 mL PBS solution and kept in an orbital shaker incubator with a rotation of 100 rpm at 37° C.

The molecule `COc1cccc2c1C(=O)c1c(O)c3c(c(O)c1C2=O)C[C@@](O)(C(=O)CO)C[C@@H]3O[C@H]1C[C@H](N)[C@H](O)[C@H](C)O1` [DOX, doxorubicin] registered a cumulative drug release of about 66.1±7.4%.

Turning to lipopolysaccharide [LPS], the cumulative drug release was about 59.4±5.5%.
